Test results as given in patent publication US10352947B2, “Use of markers in the identification of cardiotoxic agents and in the diagnosis and monitoring of cardiomyopathy and cardiovascular disease” (Berg LLC, priority 2012, dated 2019).
Like-named read-outs stand apart in the source and are kept apart here.

How the values were obtained:
CCDC47 = tested on: CCDC47
Method: Human serum samples from individuals with type 2 diabetes mellitus (T2D) and/or cardiomyopathy treated with various drugs and appropriate control subjects (n=120 total) were acquired from a commercial source. The characteristics of the group was as follows:
The level of the cardiomyopathy protein biomarker CCDC47 were measured in the serum samples from the T2DM individuals and drug treated T2DM individuals using commercially available ELISA kits. The assays were performed using the manufactures' instructions. An ROC analysis was performed to determine if serum CCDC47 levels correlated with cardiomyopathy.

serum lipids = test: Serum lipidomics of patients (diabetes / rosiglitazone / cardiomyopathy groups); format: in vivo, human
From the text: The platform methods provided herein enables integration of multi-omic signatures from human drug induced organ toxicity models. A substantive example of the platforms prowess that is under consideration here is a human drug induced cardio toxicity scenario. Human drug induced cardio toxicity models that comprises of i) Human cardiomyocyte based in vitro models of cardiotoxicity and ii) Serum samples from patients on a drug that induces cardiotoxicity. In vitro models include human cardio myocyte pretreated with fatty acids (linoleic, oleic acids and L-Carnitine) followed by treatment with a drug. The drug under consideration here is a thiazolidinedione. Cell based assays specifically measuring functional end points namely mitochondrial ATP, ROS, cell viability and mitochondrial bioenergetics were performed on in vitro models.
Proteomics was performed using the LTQ Orbitrap from Thermo Scientific as mentioned in earlier reports. Shortgun Lipidomics was performed using the TSQ vantage EMR triple Quad mass spec from thermo.
Standard procedures for merging, normalization and imputation were followed. Quality control plots for these steps are included in the accompanying folder.
Quantification of lipids that are common to serum lipid networks and pellet lipid networks. […] Lipid levels are expressed as a percent of normal lipid levels in FIG. 10B. […]

EDIL3 = test: Serum EDIL3 ELISA in normal, T2DM, Rosiglitazone-treated T2DM and cardiomyopathy individuals; format: in vivo, human; settings: some Rosiglitazone-treated T2DM individuals vs. the other Rosiglitazone-treated T2DM individuals; FIG. 7
Method: (§1) The level of protein expression of cardiotoxicity biomarkers EDIL3 and NucB1 in the serum samples from these four groups of individuals were measured by using commercially available ELISA kits.
(§2) The expression levels of the cardiotoxicity biomarkers EDIL3 and NucB1 were determined and the average expression of each biomarker for each group of individuals was calculated.

NucB1 = test: Serum NucB1 ELISA in normal, T2DM, Rosiglitazone-treated T2DM and cardiomyopathy individuals; format: in vivo, human; settings: some Rosiglitazone-treated T2DM individuals vs. the other Rosiglitazone-treated T2DM individuals; FIG. 8
Method: as §1, §2

Row | SMILES | level of CCDC47 in serum (CCDC47; human, in vivo) | level of CCDC47 in serum (CCDC47; subjects treated with the drug vs. subjects treated with the other two drugs (rosiglitazone, metformin, atorvastatin), ELISA, FIG. 13) | serum level of lipid PE D18:0-20:3/D18:1-20:2/D16:0-22:3 (serum lipids; diabetic subjects on rosiglitazone with clinical diagnosis of cardiomyopathy vs. diabetic alone and diabetics on rosiglitazone without cardiomyopathy, FIG. 10) | serum ethanolamine glycerophospholipid species P16:0-20:4, D18:0-18:2, P16:0-22:6, P18:0-20:4 and D18:0-20:4 (serum lipids; diabetic vs. diabetic rosiglitazone no cardiomyopathy vs. diabetic rosiglitazone cardiomyopathy) | EDIL3 expression level in serum (EDIL3) | NucB1 expression level in serum (NucB1)
1 | CN(C)C(=N)N=C(N)N [metformin] | No significant difference |  |  |  |  | 
2 | CC(C)c1c(C(=O)Nc2ccccc2)c(-c2ccccc2)c(-c2ccc(F)cc2)n1CC[C@@H](O)C[C@@H](O)CC(=O)O [atorvastatin] | No significant difference |  |  |  |  | 
3 | CN(CCOc1ccc(CC2SC(=O)NC2=O)cc1)c1ccccn1 (stereo not shown) [rosiglitazone] |  | significant increase | significantly reduced | stratified along with the treatment with rosiglitazone | decreased | decreased
